Data: patent US20230234942A1, “COMPOUNDS FOR TREATING HUNTINGTON'S DISEASE” (PTC Therapeutics, Inc., priority 2020, published 2023)

What follows are compounds tested on Endogenous Huntingtin Protein (assay: Endogenous Huntingtin Protein Assay (ELISA-based MSD electrochemiluminescence)). Conditions: Table 2; MSD plates coated with MW1 (expanded polyglutamine) or MAB2166 capture antibody; "inactive" = result above the detection limit of the assay.
Format: cell-based
Outline: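 MSD electrochemiluminescence sandwich ELISA: capture with MW1 (expanded polyQ) or MAB2166 at 1 µg/mL, samples incubated overnight at 4 °C. Detection by rabbit mAb #56565 then SULFO-TAG anti-rabbit antibody, each 0.25 µg/mL for 1 h at room temperature, read in buffer T on SI 6000 imager.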
`Oc1cc(-c2cn[nH]c2)ccc1-c1cnc(N2CC3CCC(C2)N3)nn1` [Cpd 135, 2-[3-(3,8-diazabicyclo[3.2.1]octan-3-yl)-1,2,4-triazin-6-yl]-5-(1H-pyrazol-4-yl)phenol] gave an IC50 of 185 nM. Compound `CC(C)[C@H]1CN(c2ncc(-c3ccc(-c4cnc5n4CCC5)cc3O)nn2)CCN1` [Cpd 279, 5-(6,7-dihydro-5H-pyrrolo[1,2-a]imidazol-3-yl)-2-{3-[(3S)-3-(propan-2-yl)piperazin-1-yl]-1,2,4-triazin-6-yl}phenol] has an IC50 of 5.2 nM. With `Cn1nnc2nc(-c3ccc(-c4cnc(N5CCN[C@@H](C6CC6)C5)nn4)c(O)c3)ccc21` [Cpd 171, 2-{3-[(3S)-3-cyclopropylpiperazin-1-yl]-1,2,4-triazin-6-yl}-5-(1-methyl-1H-[1,2,3]triazolo[4,5-b]pyridin-5-yl)phenol] the IC50 was 14.1 nM. In the case of `C[C@@H]1CN(c2ncc(-c3ccc(-c4ccc5nc(C(F)(F)F)cn5n4)cc3O)nn2)C[C@H](C)N1` [Cpd 118, 2-{3-[(3R,5S)-3,5-dimethylpiperazin-1-yl]-1,2,4-triazin-6-yl)-5-[2-(trifluoromethyl)imidazo[1,2-b]pyridazin-6-yl]phenol], the “IC50 (nM)” value is reported as “inactive”. `Cn1nc2ccc(-c3ccc(-c4cnc(N5CCN[C@@H](C6CC6)C5)nn4)c(O)c3)nc2n1` [Cpd 202, 2-{3-[(3S)-3-cyclopropylpiperazin-1-yl]-1,2,4-triazin-6-yl}-5-(2-methyl-2H-[1,2,3]triazolo[4,5-b]pyridin-5-yl)phenol] gave an IC50 of 3.7 nM. In the case of `[2H]C([2H])([2H])n1cc(-c2ccc(-c3cnc(N4CCN[C@@H](C5CC5)C4)nn3)c(O)c2)cn1` [Cpd 9, 2-{3-[(3S)-3-cyclopropylpiperazin-1-yl]-1,2,4-triazin-6-yl}-5-[1-(^2H3)methyl-1H-pyrazol-4-yl]phenol], the IC50 is reported as 9.5 nM. With `CC(C)[C@H]1CN(c2ncc(-c3ncc(-n4nccn4)cc3O)nn2)CCN1` [Cpd 175, 2-{3-[(3S)-3-(propan-2-yl)piperazin-1-yl]-1,2,4-triazin-6-yl}-5-(2H-1,2,3-triazol-2-yl)pyridin-3-ol] the IC50 was 236 nM. Work on `CC[C@@H]1CN(c2ncc(-c3ccc(-c4cn[nH]c4)cc3O)nn2)CCN1` [Cpd 48, 2-{3-[(3R)-3-ethylpiperazin-1-yl]-1,2,4-triazin-6-yl}-5-(1H-pyrazol-4-yl)phenol] yielded an IC50 of 167 nM. Work on `Cc1nc2nc(-c3ccc(-c4cnc(N5CCN[C@@H](C6CC6)C5)nn4)c(O)c3)nc(C)c2[nH]1` [Cpd 84, 2-{3-[(3S)-3-cyclopropylpiperazin-1-yl]-1,2,4-triazin-6-yl]-5-(6,8-dimethyl-7H-purin-2-yl)phenol] yielded an IC50 of 5.9 nM. `CC(C)[C@H]1CN(c2ncc(-c3ccc(-c4c[nH]nc4F)cc3O)nn2)CCN1` [Cpd 3, 5-(3-fluoro-1H-pyrazol-4-yl)-2-{3-[(3S)-3-(propan-2-yl)piperazin-1-yl]-1,2,4-triazin-6-yl}phenol] gave an IC50 of 4.4 nM. For `CC(C)[C@H]1CN(c2ncc(-c3ccc(-c4cn[nH]c4)cc3O)nn2)CCN1` [Cpd 20, 2-{3-[(3S)-3-(propan-2-yl)piperazin-1-yl]-1,2,4-triazin-6-yl}-5-(1H-pyrazol-4-yl)phenol], the IC50 was 17.1 nM. `CC(C)(O)[C@H]1CN(c2ncc(-c3ccc(-c4c[nH]nc4F)cc3O)nn2)CCN1` [Cpd 25, 5-(3-fluoro-1H-pyrazol-4-yl)-2-{3-[(3R)-3-(2-hydroxypropan-2-yl)piperazin-1-yl]-1,2,4-triazin-6-yl]phenol] was tested, and the IC50 was 24.6 nM. `CN1CCN(c2ncc(-c3ccc(-c4cnc5nn(C)cc5c4)cc3O)nn2)CC1` [Cpd 110, 2-[3-(4-methylpiperazin-1-yl)-1,2,4-triazin-6-yl]-5-(2-methyl-2H-pyrazolo[3,4-b]pyridin-5-yl)phenol] showed an IC50 of 24.9 nM. `Cc1nc2ccc(-c3ccc(-c4cnc(N5C[C@@H](C)N[C@@H](C)C5)nn4)c(O)c3)nn2n1` [Cpd 100, 2-{3-[(3R,5S)-3,5-dimethylpiperazin-1-yl]-1,2,4-triazin-6-yl}-5-(2-methyl[1,2,4]triazolo[1,5-b]pyridazin-6-yl)phenol] was tested, and the IC50 was 10.9 nM. Work on `CCC1CN(c2ncc(-c3ccc(-c4cn[nH]c4)cc3O)nn2)CCN1` (centres unmarked) [Cpd 24, 2-[3-(3-ethylpiperazin-1-yl)-1,2,4-triazin-6-yl]-5-(1H-pyrazol-4-yl)phenol] yielded an IC50 of 23.4 nM. Compound `Cc1cnn(-c2ccc(-c3cnc(N4CCN[C@@H](C(C)C)C4)nn3)c(O)c2)n1` [Cpd 184, 5-(4-methyl-2H-1,2,3-triazol-2-yl)-2-{3-[(3S)-3-(propan-2-yl)piperazin-1-yl]-1,2,4-triazin-6-yl}phenol] has an IC50 of 49 nM. `Oc1cc(-c2c[nH]nc2F)ccc1-c1cnc(N2CCN[C@H](C3CC3)C2)nn1` [Cpd 7, 2-{3-[(3R)-3-cyclopropylpiperazin-1-yl]-1,2,4-triazin-6-yl}-5-(3-fluoro-1H-pyrazol-4-yl)phenol] was tested, and the IC50 was 6.9 nM. For `CC(C)[C@H]1CN(c2ncc(-c3ccc(-c4cn(C)nn4)cc3O)nn2)CCN1` [Cpd 260, 5-(1-methyl-1H-1,2,3-triazol-4-yl)-2-{3-[(3S)-3-(propan-2-yl)piperazin-1-yl]-1,2,4-triazin-6-yl}phenol], the IC50 was 417 nM. `CC(C)[C@H]1CN(c2ncc(-c3ccc(-c4cn[nH]c4)cc3O)nn2)C[C@@H](C)N1` [Cpd 229, 2-{3-[(3R,5S)-3-methyl-5-(propan-2-yl)piperazin-1-yl]-1,2,4-triazin-6-yl}-5-(1H-pyrazol-4-yl)phenol] gave an IC50 of 18.2 nM. For `Cc1nc2c(C)nc(-c3ccc(-c4cnc(N5C[C@@H](C)N[C@@H](C)C5)nn4)c(O)c3)cn2n1` [Cpd 101, 2-{3-[(3R,5S)-3,5-dimethylpiperazin-1-yl]-1,2,4-triazin-6-yl}-5-(2,8-dimethyl[1,2,4]triazolo[1,5-a]pyrazin-6-yl)phenol], the IC50 was 13 nM. `COc1cc(-c2ccc(-c3cnc(N4CCN[C@@H](C(C)C)C4)nn3)c(O)c2)nn2nc(C)nc12` [Cpd 70, 5-(8-methoxy-2-methyl[1,2,4]triazolo[1,5-b]pyridazin-6-yl)-2-{3-[(3S)-3-(propan-2-yl)piperazin-1-yl]-1,2,4-triazin-6-yl}phenol] was tested, and the IC50 was 3.8 nM. `C[C@@H]1CN(c2ncc(-c3ccc(-c4c[nH]nc4F)cc3O)nn2)C[C@H](C2CCC2)N1` [Cpd 236, 2-{3-[(3S,5R)-3-cyclobutyl-5-methylpiperazin-1-yl]-1,2,4-triazin-6-yl}-5-(3-fluoro-1H-pyrazol-4-yl)phenol] was tested, and the IC50 was 9.5 nM. With `CC(C)[C@@H]1CN(c2ncc(-c3ccc(-c4cn[nH]c4)cc3O)nn2)C[C@H](C)N1` [Cpd 216, 2-{3-[(3S,5R)-3-methyl-5-(propan-2-yl)piperazin-1-yl]-1,2,4-triazin-6-yl]-5-(1H-pyrazol-4-yl)phenol] the IC50 was 218 nM. `COc1nnc(-c2ccc(-c3cnc(N4CCN[C@@H](C(C)C)C4)nn3)c(O)c2)s1` [Cpd 204, 5-(5-methoxy-1,3,4-thiadiazol-2-yl)-2-{3-[(3S)-3-(propan-2-yl)piperazin-1-yl]-1,2,4-triazin-6-yl}phenol] was tested, and the IC50 was 162 nM. With `Oc1cc(-c2ncco2)ccc1-c1cnc(N2CCN[C@@H](C3CC3)C2)nn1` [Cpd 233, 2-{3-[(3S)-3-cyclopropylpiperazin-1-yl]-1,2,4-triazin-6-yl}-5-(1,3-oxazol-2-yl)phenol] the IC50 was 17.7 nM.

Same assay, conditions: Table 3; selected compounds from WO/2019/191229 A1, same MSD assay
In the case of `CC1CN(c2ncc(-c3ccc(-c4cn[nH]c4)cc3O)nn2)CC(C)N1` (centres unmarked) [WO/2019/191229 A1 Cpd 262, reference compound], the IC50 is reported as 72.8 nM.
